Our source for the IC50 values is US5830905A, “Compounds, compositions and methods for treatment of hepatitis C” (Viropharma Incorporated, priority 1996, dated 1998).

The assay has as its target viral helicase (Hepatitis C virus (isolate H77), UniProt P27958). As to the kind of experiment: Assay for Helicase Inhibition. It counts as biochemical, HCV. Conditions: average of three test results; read-out: IC50 (concentration required to achieve a 50% inhibition of helicase activity). The procedure:
Anti-viral activity was measured on the basis of inhibition of helicase activity. The biological studies of the anti-viral activity of the compounds of the invention are described below.
Example 6 illustrates the efficacy of compounds of the invention in inhibiting the viral helicase activity.
Assay for Helicase Inhibition
The helicase inhibition assay was performed according to methodology of the type described, for example, in: Lain et al., Nucleic Acids Res. 18:7003-7006 (1991); Warrener et al., J. Virol. 69:1720-1726 (1995); Kim et al., Biochem. Biophys. Res. Comm. 214:160-166 (1995). The value given in Table 1 represent the average of three test results in which the concentrations of anti-viral compound required to achieve a 50% inhibition of helicase activity (IC50) were measured.

viral helicase, sequence (P27958 1027-1657): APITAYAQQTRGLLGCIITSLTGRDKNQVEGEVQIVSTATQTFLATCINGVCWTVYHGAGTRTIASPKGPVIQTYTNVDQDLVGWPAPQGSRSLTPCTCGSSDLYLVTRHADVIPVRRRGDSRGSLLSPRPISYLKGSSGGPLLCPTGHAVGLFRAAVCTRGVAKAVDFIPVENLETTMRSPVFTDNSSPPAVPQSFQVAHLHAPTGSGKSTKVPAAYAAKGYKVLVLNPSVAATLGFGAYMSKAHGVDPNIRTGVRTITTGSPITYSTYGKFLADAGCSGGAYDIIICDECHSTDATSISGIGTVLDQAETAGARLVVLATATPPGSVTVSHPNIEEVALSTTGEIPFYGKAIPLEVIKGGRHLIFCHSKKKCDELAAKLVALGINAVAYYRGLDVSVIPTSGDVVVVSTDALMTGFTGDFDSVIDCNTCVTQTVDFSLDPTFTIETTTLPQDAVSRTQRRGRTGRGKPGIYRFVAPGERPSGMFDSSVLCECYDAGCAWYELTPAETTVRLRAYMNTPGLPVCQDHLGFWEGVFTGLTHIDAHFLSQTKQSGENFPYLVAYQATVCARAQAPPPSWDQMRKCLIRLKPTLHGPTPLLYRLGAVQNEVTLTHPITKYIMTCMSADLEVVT

Turning to `c1cc(CN2CCC(C3=N[C@@H]4CCCC[C@H]4N3)CC2)ccc1CN1CCC(C2=N[C@@H]3CCCC[C@H]3N2)CC1` (relative stereo) [Example 3, 1,1'-[1,4-phenylenebis (methylene)]bis(4,4'-trans-(4,5,6,7,8,9-hexahydro)benzimidazoyl)piperidine], the IC50 was 7 µM.
